The source of these data is patent publication US20060135480A1, “Derivatives of succinic and glutaric acids and analogs thereof useful as inhibitors of phex” (Enobia Pharma, priority 2002, published 2006).

This experiment addresses T1, sPHEX (Homo sapiens, UniProt P78562).
T1 construct: The soluble form of the metallopeptidase PHEX (sPHEX) was purified to homogeneity; made in house
T1 sequence (P78562 53-749 limits assumed): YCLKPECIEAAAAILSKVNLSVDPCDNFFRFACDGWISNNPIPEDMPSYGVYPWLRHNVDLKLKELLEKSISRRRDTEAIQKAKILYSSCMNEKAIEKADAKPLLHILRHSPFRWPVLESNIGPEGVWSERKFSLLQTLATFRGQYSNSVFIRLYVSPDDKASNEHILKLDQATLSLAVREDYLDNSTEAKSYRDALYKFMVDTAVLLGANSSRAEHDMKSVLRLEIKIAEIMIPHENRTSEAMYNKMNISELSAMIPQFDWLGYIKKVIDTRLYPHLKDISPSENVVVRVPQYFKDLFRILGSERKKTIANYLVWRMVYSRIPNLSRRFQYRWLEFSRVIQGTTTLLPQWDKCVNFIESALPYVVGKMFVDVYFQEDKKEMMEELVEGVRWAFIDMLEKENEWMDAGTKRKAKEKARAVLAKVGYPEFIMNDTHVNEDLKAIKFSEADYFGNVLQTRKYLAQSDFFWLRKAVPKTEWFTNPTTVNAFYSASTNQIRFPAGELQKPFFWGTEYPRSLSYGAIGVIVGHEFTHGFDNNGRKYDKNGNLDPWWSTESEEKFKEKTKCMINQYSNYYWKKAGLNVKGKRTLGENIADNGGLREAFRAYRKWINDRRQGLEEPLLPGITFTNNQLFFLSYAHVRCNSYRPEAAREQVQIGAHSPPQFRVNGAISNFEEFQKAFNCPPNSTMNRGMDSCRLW
Description: sPHEX inhibitor IC50 determination using a fluorogenic substrate (Abz-GFSDYK-Dnp, S3). It is filed as biochemical. The following applies: fluorogenic substrate 20 μM, 100 ng sPHEX, pH 6.5. The procedure: The soluble form of the metallopeptidase PHEX (sPHEX) was purified to homogeneity according to the methods of Boileau and Crine (WO 00/50580). sPHEX quantity was measured with the Bradford assay (BioRad) using BSA as a standard.
sPHEX activity was determined using a fluorogenic substrate in which an increase of fluorescence was proportional to substrate conversion to products.
S3 was synthesized at Dr. Gilles Lajoie's laboratories (University of Western Ontario, Canada) by standard solid phase peptide synthesis. The fluorescent reaction product was excited at 320 nm to fluoresce at 420 nm. Fluorescence was recorded at 420 nm every five minutes over a one-hour period on a fluorescence plate reader (Perkin-Elmer, HTS-7000) to calculate the initial rate of the reaction. Typically, the reaction was carried out in 200 μl of buffer M (50 mM Mes(NaOH) pH 6.5, 150 mM NaCl) containing 100 ng of purified sPHEX and 20 μM of fluorigenic substrate to initiate the reaction. Enzymatic activity was determined by subtracting either the initial rate of substrate in buffer (solvolysis), or the typical reaction rate in which 5 mM EDTA was added prior to initiating the reaction.
sPHEX inhibitor IC50 determinations were done using the tested inhibitor at various concentrations coming from a serial dilution (usually ranging from 10^−3 M to 10^−12 M) in the reaction described above. IC50 values were calculated using the iterative four parameters non-linear regression formula from the GraphPad™ software (Prism).
The IC50 is the concentration that inhibits the measured activity by half. Low values mean higher potency, high ones lower potency. `O=C(O)C[C@H](NC(=O)CS)C(=O)N[C@@H](Cc1c[nH]c2ccccc12)C(=O)O` [Example 87, N-[1-Carboxy-2-(1H-indol-3-yl)-ethyl]-3-(2-mercapto-acetylamino)-succinamic acid] displayed an IC50 of 600 nM.
`O=C(O)C[C@H](NC(=O)[C@@H](S)Cc1ccccc1)C(=O)N[C@@H](Cc1c[nH]c2ccccc12)C(=O)O` [Example 89, N-[1-Carboxy-2-(1H-indol-3-yl)-ethyl]-3-(2-mercapto-3-phenyl-propionylamino)-succinamic acid]: the IC50 is 11 nM.
Take `C[C@H](S)C(=O)N[C@@H](CC(=O)O)C(=O)N[C@@H](Cc1c[nH]c2ccccc12)C(=O)O` [Example 90, N-[1-Carboxy-2-(1H-indol-3-yl)-ethyl]-3-(2-mercapto-propionylamino)-succinamic acid]: the IC50 is 68 nM.
As to `CC(C)C[C@H](S)C(=O)N[C@@H](CC(=O)O)C(=O)N[C@@H](Cc1c[nH]c2ccccc12)C(=O)O` [Example 91, N-[1-Carboxy-2-(1H-indol-3-yl)-ethyl]-3-(2-mercapto-4-methyl-pentanoylamino)-succinamic acid], the half-maximal inhibitory concentration (IC50) was found to be 94 nM.
As to `CC(C)[C@H](S)C(=O)N[C@@H](CC(=O)O)C(=O)N[C@@H](Cc1c[nH]c2ccccc12)C(=O)O` [Example 92, N-[1-Carboxy-2-(1H-indol-3-yl)-ethyl]-3-(2-mercapto-3-methyl-butyrylamino)-succinamic acid], the IC50 amounted to 5 nM.
Consider `O=C(O)C[C@H](NC(=O)[C@@H](S)CO)C(=O)N[C@@H](Cc1c[nH]c2ccccc12)C(=O)O` [Example 93, N-[1-Carboxy-2-(1H-indol-3-yl)-ethyl]-3-(3-hydroxy-2-mercapto-propionylamino)-succinamic acid], for which the midpoint of inhibition, the IC50, lay at 48 nM.
`C[C@H](O)[C@H](S)C(=O)N[C@@H](CC(=O)O)C(=O)N[C@@H](Cc1c[nH]c2ccccc12)C(=O)O` [Example 94, N-[1-Carboxy-2-(1H-indol-3-yl)-ethyl]-3-(3-hydroxy-2-mercapto-butyrylamino)-succinamic acid] returned an IC50 of 4 nM.
As for `CCCC[C@H](S)C(=O)N[C@@H](CC(=O)O)C(=O)N[C@@H](Cc1c[nH]c2ccccc12)C(=O)O` [Example 95, N-[1-Carboxy-2-(1H-indol-3-yl)-ethyl]-3-(2-mercapto-hexanoylamino)-succinamic acid], the figure is 7 nM; as for `O=C(O)C[C@H](NC(=O)[C@@H](S)CCc1ccccc1)C(=O)N[C@@H](Cc1c[nH]c2ccccc12)C(=O)O` [Example 96, N-[1-Carboxy-2-(1H-indol-3-yl)-ethyl]-3-(2-mercapto-4-phenyl-butyrylamino)-succinamic acid], 4 nM.
`O=C(O)C[C@H](NC(=O)[C@@H](S)c1ccccc1)C(=O)N[C@@H](Cc1c[nH]c2ccccc12)C(=O)O` [Example 97, N-[1-Carboxy-2-(1H-indol-3-yl)-ethyl]-3-(2-mercapto-2-phenyl-acetylamino)-succinamic acid] displayed an IC50 of 3 nM.
`O=C(O)C[C@H](NC(=O)[C@@H](S)Cc1ccc(-c2ccccc2)cc1)C(=O)N[C@@H](Cc1c[nH]c2ccccc12)C(=O)O` [Example 98, 3-(3-Biphenyl-4-yl-2-mercapto-propionylamino)-N-[1-Carboxy-2-(1H-indol-3-yl)-ethyl]-succinamic acid] returned an IC50 of 8 nM.
As for `O=C(O)C[C@H](NC(=O)[C@@H](S)Cc1ccc(OCc2ccccc2)cc1)C(=O)N[C@@H](Cc1c[nH]c2ccccc12)C(=O)O` [Example 99, 3-(3-(4-Benzyloxy-phenyl)-2-mercapto-propionylamino)-N-[1-Carboxy-2-(1H-indol-3-yl)-ethyl]-succinamic acid], the figure is 8 nM.
In the case of `O=C(O)C[C@H](NC(=O)[C@@H](S)Cc1ccc(F)cc1)C(=O)N[C@@H](Cc1c[nH]c2ccccc12)C(=O)O` [Example 100, N-[1-Carboxy-2-(1H-indol-3-yl)-ethyl]-3-[3-(4-fluoro-phenyl)-2-mercapto-propionylamino]-succinamic acid], the IC50 was found to be 6 nM.
`COc1ccc(C[C@H](S)C(=O)N[C@@H](CC(=O)O)C(=O)N[C@@H](Cc2c[nH]c3ccccc23)C(=O)O)cc1` [Example 101, N-[1-Carboxy-2-(1H-indol-3-yl)ethyl]-3-[2-mercapto-3-(methoxy-phenyl)-propionylamino]-succinamic acid] yielded an IC50 of 18 nM.
Regarding `O=C(O)C[C@H](NC(=O)[C@@H](S)CC1CCCCC1)C(=O)N[C@@H](Cc1c[nH]c2ccccc12)C(=O)O` [Example 102, N-[1-Carboxy-2-(1H-indol-3-yl)-ethyl]-3-(3-cyclohexyl-2-mercapto-propionylamino)-succinamic acid], the IC50 is 20 nM.
Next, `O=C(O)C[C@H](NC(=O)[C@@H](S)Cc1c[nH]c2ccccc12)C(=O)N[C@@H](Cc1c[nH]c2ccccc12)C(=O)O` [Example 103, N-[1-Carboxy-2-(1H-indol-3-yl)-ethyl]-3-[3-(1H-indol-3-yl)-2-mercapto-propionylamino]-succinamic acid]: 22 nM; `O=C(O)C[C@H](NC(=O)[C@@H](S)Cc1ccc2ccccc2c1)C(=O)N[C@@H](Cc1c[nH]c2ccccc12)C(=O)O` [Example 104, N-[1-Carboxy-2-(1H-indol-3-yl)-ethyl]-3-(2-mercapto-3-naphthalen-2-yl-propionylamino]-succinamic acid]: 15 nM; `O=C(O)C[C@H](NC(=O)[C@@H](S)Cc1ccccc1)C(=O)N[C@@H](Cc1ccc2ccccc2c1)C(=O)O` [Example 106, N-(1-Carboxy-2-naphthalen-2-yl-ethyl)-3-(2-mercapto-3-phenylpropionylamino)-succinamic acid]: 6 nM.
For the molecule `O=C(O)C[C@H](NC(=O)[C@@H](S)Cc1ccccc1)C(=O)N[C@@H](CO)C(=O)O` [Example 107, N-(1-Carboxy-2-hydroxy-ethyl)-3-(2-mercapto-3-phenyl-propionylamino)-succinamic acid], the IC50 came to 170 nM.
In turn, `O=C(O)C[C@H](NC(=O)[C@@H](S)Cc1ccccc1)C(=O)N[C@@H](Cc1ccc(O)cc1)C(=O)O` [Example 108, N-[1-Carboxy-2-(4-hydroxy-phenyl)-ethyl]-3-(2-mercapto-3-phenyl-propionylamino)-succinamic acid] showed an IC50 of 7 nM.
Take `O=C(O)C[C@H](NC(=O)[C@@H](S)Cc1ccccc1)C(=O)N[C@@H](Cc1ccccc1)C(=O)O` [Example 109, N-[1-Carboxy-2-phenyl-ethyl)-3-(2-mercapto-3-phenyl-propionylamino)-succinamic acid]: it took 7 nM to reach half-maximal inhibition (IC50).
Turning to `O=C(O)C[C@H](NC(=O)[C@@H](S)Cc1ccccc1)C(=O)N[C@@H](Cc1ccc(-c2ccccc2)cc1)C(=O)O` [Example 110, N-(2-Biphenyl-4-yl-1-Carboxy-ethyl)-3-(2-mercapto-3-phenyl-propionylamino)-succinamic acid], it took 38 nM to reach half-maximal inhibition (IC50).
`O=C(O)C[C@H](NC(=O)[C@@H](S)Cc1ccccc1)C(=O)N[C@H](CO)Cc1ccccc1` [Example 111, N-(1-Benzyl-2-hydroxy-ethyl)-3-(2-mercapto-3-phenyl-propionylamino)-succinamic acid]: the IC50 came to 90 nM.
`O=C(O)C[C@@H](NC(=O)[C@@H](S)Cc1ccccc1)C(=O)N[C@@H](Cc1c[nH]c2ccccc12)C(=O)O` [Example 112, N-[1-Carboxy-2-(1H-indol-3-yl)-ethyl]-3-(2-mercapto-3-phenyl-propionylamino)-succinamic acid] returned an IC50 of 15 nM.
